“And” between values parts separate entries of the source, which are not always exact repeats. Identical values can stand only once.
Molecular target: T1, Induced myeloid leukemia cell differentiation protein Mcl-1 [K194A,K197A,R201A] (Homo sapiens, UniProt Q07820, K194A/K197A/R201A)
T1 construct: gene MCL1
Assay: MCL-1/Noxa BH3 Peptide (MCL-1 Assay)
Procedure: The dose-dependent inhibition by the compounds described in this invention of the interaction between MCL-1 and the BH3 domain of Noxa (both human) was determined using a steady state binding competition assay with time-resolved fluorescence energy transfer (TR-FRET) readout. […] The MBP-MCL-1 was purchased from Beryllium (Bedford, Mass., USA). […] The Noxa BH3-derived peptide can be obtained from e.g. Biosyntan (Berlin, Germany).

T1 sequence (Q07820 whole entry K194A/K197A/R201A, looked up): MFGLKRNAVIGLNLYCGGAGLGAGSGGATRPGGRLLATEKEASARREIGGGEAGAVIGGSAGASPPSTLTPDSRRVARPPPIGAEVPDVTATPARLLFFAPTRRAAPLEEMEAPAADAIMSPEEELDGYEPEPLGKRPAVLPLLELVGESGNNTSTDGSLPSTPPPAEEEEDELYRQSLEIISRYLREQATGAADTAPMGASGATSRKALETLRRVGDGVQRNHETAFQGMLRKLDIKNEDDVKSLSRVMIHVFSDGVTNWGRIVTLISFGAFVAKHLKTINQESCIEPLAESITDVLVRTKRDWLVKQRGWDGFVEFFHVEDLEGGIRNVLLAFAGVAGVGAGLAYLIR

| IC50 | SMILES |
| --- | --- |
| 2.1 nM and 6.4 nM | CCc1c2c(nn1C)N(C)CCCCCn1c(C(=O)O)c(CCCOc3cccc4cc(F)ccc34)c3ccc(Cl)c-2c31 [US11447504, Example 77] |
| 2.2 nM | Cc1c2c(nn1C)N(C)CCCCCn1c(C(=O)O)c(CCCOc3cccc4ccccc34)c3ccc(Cl)c-2c31 [US11447504, Example 71] |
